Literature values in patent publication US7879746B2, “Hydrophilic polypropylene fibers having antimicrobial activity” (3M Innovative Properties Company, priority 1999, dated 2011).

Details: 100% active, glossary value

Row | Substance | HLB
1 | sorbitan monopalmitate [SPAN™ 40] | 6.7
2 | sorbitan monostearate [ARLACEL™ 60] | 4.3
3 | sorbitan sequioleate (1½ mole adduct) [ARLACEL™ 83] | 3.7
